Data published in patent US8691815B2, “Substituted oxindole derivatives, drugs containing said derivatives and the use thereof” (AbbVie Deutschland GmbH & Co. KG, priority 2005, dated 2014).
pKi: −log10 of the molar value. Structures can show the parent of a compound that is named as a salt.

target: T1, human vasopressin V1b receptor (Homo sapiens, UniProt P47901); experiment: Vasopressin V1b receptor binding assay; conditions: membranes from CHO-K1 cells with stably expressed human V1b receptors, displacement of 1.5 nM 3H-AVP
T1 construct: expressed in transfected cells; host or cells: CHO-K1 (cell line hV1b-3H2_CHO), membrane preparation
T1 sequence (P47901 1-424): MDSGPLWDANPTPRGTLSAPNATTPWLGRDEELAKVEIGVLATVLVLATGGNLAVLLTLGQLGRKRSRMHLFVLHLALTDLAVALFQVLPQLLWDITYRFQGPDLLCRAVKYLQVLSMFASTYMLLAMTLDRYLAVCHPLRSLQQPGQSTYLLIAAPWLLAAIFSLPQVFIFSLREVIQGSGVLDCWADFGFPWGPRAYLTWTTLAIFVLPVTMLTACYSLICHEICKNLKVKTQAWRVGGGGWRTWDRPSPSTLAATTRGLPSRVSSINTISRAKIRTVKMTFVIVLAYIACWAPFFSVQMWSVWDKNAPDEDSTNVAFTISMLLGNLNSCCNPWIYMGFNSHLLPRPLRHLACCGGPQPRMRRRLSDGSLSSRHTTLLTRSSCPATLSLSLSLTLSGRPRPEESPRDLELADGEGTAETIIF
Outline: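 Membranes were incubated with radioligand for 60 min at room temperature in 50 mM Tris, 10 mM MgCl2, 0.1% BSA, pH 7.4, with 2% DMSO final. Nonspecific binding was defined with 1 uM AVP. Bound ligand was collected by GF/B filtration and counted by scintillation, and binding parameters were derived by nonlinear regression.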

SMILES | pKi
CCCNCc1ccc(C2(N3CCC[C@H]3C(=O)N(C)C)C(=O)N(S(=O)(=O)c3ccc(OC)cc3)c3ccc(Cl)cc32)c(OC)c1 (stereo partly drawn) [Example 85, (S)-1-[5-Chloro-1-(4-methoxybenzenesulfonyl)-3-(2-methoxy-4-propylaminomethyl-phenyl)-2-oxo-2,3-dihydro-1H-indol-3-yl]pyrrolidine-2-dimethylcarboxamide, trifluoroacetic acid salt] | > 9.00
CCN(CC)Cc1ccc(C2(N3CCC[C@H]3C(=O)N(C)C)C(=O)N(S(=O)(=O)c3ccc(OC)cc3)c3ccc(Cl)cc32)c(OC)c1 (stereo partly drawn) [Example 86, (S)-1-[5-Chloro-3-(4-diethylaminomethyl-2-methoxyphenyl)-1-(4-methoxybenzene-sulfonyl)-2-oxo-2,3-dihydro-1H-indol-3-yl]pyrrolidine-2-dimethylcarboxamide, trifluoroacetic acid salt] | > 9.00
COc1ccc(S(=O)(=O)N2C(=O)C(c3ccc(CN4CCC4)cc3OC)(N3CCC[C@H]3C(=O)N(C)C)c3cc(Cl)ccc32)cc1 (stereo partly drawn) [Example 87, (S)-1-[3-(4-Azetidin-1-ylmethyl-2-methoxyphenyl)-5-chloro-1-(4-methoxybenzene-sulfonyl)-2-oxo-2,3-dihydro-1H-indol-3-yl]pyrrolidine-2-dimethylcarboxamide, trifluoroacetic acid salt] | > 9.00
COc1ccc(S(=O)(=O)N2C(=O)C(c3ccc(CN(C)C(C)C)cc3OC)(N3CCC[C@H]3C(=O)N(C)C)c3cc(Cl)ccc32)cc1 (stereo partly drawn) [Example 88, (S)-1-[5-Chloro-3-{4-[(isopropylmethylamino)methyl]-2-methoxyphenyl}-1-(4-methoxy-benzenesulfonyl)-2-oxo-2,3-dihydro-1H-indol-3-yl]pyrrolidine-2-dimethylcarboxamide, trifluoroacetic acid salt] | > 9.00
COCCN(C)Cc1ccc(C2(N3CCC[C@H]3C(=O)N(C)C)C(=O)N(S(=O)(=O)c3ccc(OC)cc3)c3ccc(Cl)cc32)c(OC)c1 (stereo partly drawn) [Example 89, (S)-1-[5-Chloro-1-(4-methoxybenzenesulfonyl)-3-(2-methoxy-4-{[(2-methoxyethyl)-methylamino]methyl}phenyl)-2-oxo-2,3-dihydro-1H-indol-3-yl]pyrrolidine-2-dimethyl-carboxamide, trifluoroacetic acid salt] | > 9.00
COc1ccc(S(=O)(=O)N2C(=O)C(c3ccc(CN(C)C)cc3OC)(N3CCC[C@H]3C(=O)N(C)C)c3ccccc32)cc1 (stereo partly drawn) [Example 90, (S)-1-[3-(4-Dimethylaminomethyl-2-methoxyphenyl)-1-(4-methoxybenzenesulfonyl)-2-oxo-2,3-dihydro-1H-indol-3-yl]pyrrolidine-2-dimethylcarboxamide, trifluoroacetic acid salt] | 7.00 to 8.00
COc1ccc(S(=O)(=O)N2C(=O)C(c3ccc(CN4CCCC4)cc3OC)(N3CCC[C@H]3C(=O)N(C)C)c3ccccc32)cc1 (stereo partly drawn) [Example 91, (S)-1-[1-(4-Methoxybenzenesulfonyl)-3-(2-methoxy-4-pyrrolidin-1-ylmethylphenyl)-2-oxo-2,3-dihydro-1H-indol-3-yl]pyrrolidine-2-dimethylcarboxamide, trifluoroacetic acid salt] | 8.00 to 9.00
COc1ccc(S(=O)(=O)N2C(=O)C(c3ccc(CN4CCN(C)CC4)cc3OC)(N3CCC[C@H]3C(=O)N(C)C)c3ccccc32)cc1 (stereo partly drawn) [Example 92, (S)-1-{1-(4-Methoxybenzenesulfonyl)-3-[2-methoxy-4-(4-methylpiperazin-1-yl-methyl)phenyl]-2-oxo-2,3-dihydro-1H-indol-3-yl}-pyrrolidine-2-carboxylic acid dimethylamide, trifluoroacetic acid salt] | 8.00 to 9.00
CCNCc1ccc(C2(N3CCC[C@H]3C(=O)N(C)C)C(=O)N(S(=O)(=O)c3ccc(OC)cc3)c3ccc(Cl)cc32)c(OC)c1 (stereo partly drawn) [Example 93, (S)-1-[5-Chloro-3-(4-ethylaminomethyl-2-methoxyphenyl)-1-(4-methoxybenzene-sulfonyl)-2-oxo-2,3-dihydro-1H-indol-3-yl]pyrrolidine-2-dimethylcarboxamide, trifluoroacetic acid salt] | > 9.00
COc1ccc(S(=O)(=O)N2C(=O)C(c3ccc(CNC(C)C)cc3OC)(N3CCC[C@H]3C(=O)N(C)C)c3cc(Cl)ccc32)cc1 (stereo partly drawn) [Example 94, (S)-1-[5-Chloro-3-[4-(isopropylaminomethyl)-2-methoxyphenyl]-1-(4-methoxybenzene-sulfonyl)-2-oxo-2,3-dihydro-1H-indol-3-yl]pyrrolidine-2-dimethylcarboxamide, trifluoroacetic acid salt] | > 9.00
COc1ccc(CN(C)C)cc1C1(N2CCC[C@H]2C(=O)N(C)C)C(=O)N(S(=O)(=O)c2ccc(C#N)cc2)c2ccc(Cl)cc21 (stereo partly drawn) [Example 95, (S)-1-[5-Chloro-1-(4-cyanobenzenesulfonyl)-3-(5-dimethylaminomethyl-2-methoxy-phenyl)-2-oxo-2,3-dihydro-1H-indol-3-yl]pyrrolidine-2-dimethylcarboxamide] | 8.00 to 9.00
COc1ccc(CN2CCCC2)cc1C1(N2CCC[C@H]2C(=O)N(C)C)C(=O)N(S(=O)(=O)c2ccc(C#N)cc2)c2ccc(Cl)cc21 (stereo partly drawn) [Example 96, (S)-1-[5-Chloro-1-(4-cyanobenzenesulfonyl)-3-(2-methoxy-5-pyrrolidin-1-ylmethyl-phenyl)-2-oxo-2,3-dihydro-1H-indol-3-yl]pyrrolidine-2-dimethylcarboxamide] | > 9.00
COc1ccc(CN2CCN(C)CC2)cc1C1(N2CCC[C@H]2C(=O)N(C)C)C(=O)N(S(=O)(=O)c2ccc(C#N)cc2)c2ccc(Cl)cc21 (stereo partly drawn) [Example 97, (S)-1-{5-Chloro-1-(4-cyanobenzenesulfonyl)-3-[2-methoxy-5-(4-methylpiperazin-1-yl-methyl)phenyl]-2-oxo-2,3-dihydro-1H-indol-3-yl}pyrrolidine-2-carboxylic acid dimethylamide, trifluoroacetic acid salt] | > 9.00
COc1ccc(CN(C)C)cc1C1(N2CCC[C@H]2C(=O)N(C)C)C(=O)N(S(=O)(=O)c2ccc(F)cc2)c2ccc(Cl)cc21 (stereo partly drawn) [Example 98, (S)-1-[5-Chloro-3-(5-dimethylaminomethyl-2-methoxyphenyl)-1-(4-fluorobenzene-sulfonyl)-2-oxo-2,3-dihydro-1H-indol-3-yl]pyrrolidine-2-dimethylcarboxamide, trifluoroacetic acid salt] | 8.00 to 9.00
COc1cc(CN2CCNCC2)ccc1C1(N2CCC[C@H]2C(=O)N(C)C)C(=O)N(S(=O)(=O)c2ccc(C#N)cc2)c2ccc(Cl)cc21 (stereo partly drawn) [Example 99, (S)-1-[5-Chloro-1-(4-cyanobenzenesulfonyl)-3-(2-methoxy-4-piperazin-1-ylmethyl-phenyl)-2-oxo-2,3-dihydro-1H-indol-3-yl]pyrrolidine-2-dimethylcarboxamide, trifluoroacetic acid salt] | > 9.00
CCCNCc1ccc(OC)c(C2(N3CCC[C@H]3C(=O)N(C)C)C(=O)N(S(=O)(=O)c3ccc(C#N)cc3)c3ccc(Cl)cc32)c1 (stereo partly drawn) [Example 100, (S)-1-[5-Chloro-1-(4-cyanobenzenesulfonyl)-3-(2-methoxy-5-propylaminomethyl-phenyl)-2-oxo-2,3-dihydro-1H-indol-3-yl]pyrrolidine-2-dimethylcarboxamide, trifluoroacetic acid salt] | > 9.00
